Test results from ChEMBL document CHEMBL4507311, “Data for DCP probe A-1155463” (2021).

Experiments:
[1] = molecular target: Serine/threonine-protein kinase pim-3 (Homo sapiens) (UniProt Q86V86); details: Compound concentration 1000.0 nM
[2] = molecular target: Protein-tyrosine kinase 6 (Homo sapiens) (UniProt Q13882); details: Compound concentration 1000.0 nM
[3] = molecular target: MAP kinase-activated protein kinase 2 (Homo sapiens) (UniProt P49137); details: Compound concentration 1000.0 nM
[4] = molecular target: Alpha-1D adrenergic receptor (Homo sapiens) (UniProt P25100); details: Compound concentration 10.0 uM
[5] = molecular target: Dual specificity protein kinase CLK3 (Homo sapiens) (UniProt P49761); details: Compound concentration 1000.0 nM
[6] = molecular target: LIM domain kinase 1 (Homo sapiens) (UniProt P53667); details: Compound concentration 1000.0 nM
[7] = molecular target: Phosphatidylinositol 3-kinase C2 domain-containing subunit gamma (Homo sapiens) (UniProt O75747); details: Compound concentration 1000.0 nM
[8] = molecular target: Mitogen-activated protein kinase kinase kinase 2 (Homo sapiens) (UniProt Q9Y2U5); details: Compound concentration 1000.0 nM
[9] = molecular target: Wee1-like protein kinase (Homo sapiens) (UniProt P30291); details: Compound concentration 1000.0 nM
[10] = tested on: ALK tyrosine kinase receptor (Homo sapiens), Q9UM73 [C1156Y]; details: Compound concentration 1000.0 nM
[11] = molecular target: Mast/stem cell growth factor receptor Kit (Homo sapiens) (UniProt P10721); details: Compound concentration 1000.0 nM
[12] = tested on: Epidermal growth factor receptor (Homo sapiens), P00533 [UNDEFINED MUTATION]; details: Compound concentration 1000.0 nM
Epidermal growth factor receptor (Homo sapiens), P00533 [UNDEFINED MUTATION], sequence (P00533 whole entry, looked up, change not shown): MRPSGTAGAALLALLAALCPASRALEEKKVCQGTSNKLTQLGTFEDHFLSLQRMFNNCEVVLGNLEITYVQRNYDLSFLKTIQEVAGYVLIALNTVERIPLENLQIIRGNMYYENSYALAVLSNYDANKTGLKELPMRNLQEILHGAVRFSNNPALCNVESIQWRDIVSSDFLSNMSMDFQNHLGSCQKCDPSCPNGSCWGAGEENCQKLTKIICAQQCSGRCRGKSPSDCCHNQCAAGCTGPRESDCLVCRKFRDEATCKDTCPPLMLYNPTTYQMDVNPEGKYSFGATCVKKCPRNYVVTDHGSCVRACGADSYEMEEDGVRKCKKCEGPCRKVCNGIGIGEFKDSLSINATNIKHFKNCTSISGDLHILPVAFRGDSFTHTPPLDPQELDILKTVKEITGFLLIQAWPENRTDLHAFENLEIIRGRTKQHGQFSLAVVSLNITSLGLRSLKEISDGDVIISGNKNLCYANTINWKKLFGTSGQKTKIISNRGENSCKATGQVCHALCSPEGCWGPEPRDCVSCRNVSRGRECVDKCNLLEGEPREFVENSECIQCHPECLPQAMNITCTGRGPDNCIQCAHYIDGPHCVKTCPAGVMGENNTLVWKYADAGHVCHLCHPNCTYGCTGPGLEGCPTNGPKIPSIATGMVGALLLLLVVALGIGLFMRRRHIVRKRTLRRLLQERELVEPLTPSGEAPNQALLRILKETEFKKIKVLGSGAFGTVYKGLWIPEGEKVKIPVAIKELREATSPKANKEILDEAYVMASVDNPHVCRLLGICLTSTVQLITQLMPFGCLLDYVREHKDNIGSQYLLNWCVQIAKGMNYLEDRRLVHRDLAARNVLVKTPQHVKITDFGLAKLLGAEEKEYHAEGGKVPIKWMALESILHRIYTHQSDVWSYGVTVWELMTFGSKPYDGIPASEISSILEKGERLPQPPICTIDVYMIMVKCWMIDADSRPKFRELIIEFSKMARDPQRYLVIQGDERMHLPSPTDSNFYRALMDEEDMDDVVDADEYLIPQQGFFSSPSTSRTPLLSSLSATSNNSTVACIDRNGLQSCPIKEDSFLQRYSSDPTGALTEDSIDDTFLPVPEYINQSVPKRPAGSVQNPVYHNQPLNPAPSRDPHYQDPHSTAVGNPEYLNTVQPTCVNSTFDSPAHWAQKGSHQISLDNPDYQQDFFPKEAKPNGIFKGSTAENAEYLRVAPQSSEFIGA

[13] = molecular target: T1, Sigma intracellular receptor 2 (Homo sapiens, UniProt Q5BJF2); experiment: GPCRScan assay: inhibition of Sigma 2; design: radioligand conc. used [nm] 5.0, parental cells HEKT
T1 sequence (Q5BJF2 whole entry): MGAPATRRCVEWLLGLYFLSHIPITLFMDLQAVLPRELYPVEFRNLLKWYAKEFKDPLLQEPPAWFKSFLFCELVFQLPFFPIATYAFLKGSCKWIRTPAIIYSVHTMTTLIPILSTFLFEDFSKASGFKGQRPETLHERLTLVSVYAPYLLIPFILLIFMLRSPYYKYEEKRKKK

[14] = molecular target: Serine/threonine-protein kinase D1 (Homo sapiens) (UniProt Q15139); details: Compound concentration 1000.0 nM
[15] = molecular target: Mitogen-activated protein kinase kinase kinase 20 (Homo sapiens) (UniProt Q9NYL2); details: Compound concentration 1000.0 nM
[16] = molecular target: T1, Sigma intracellular receptor 2; details: Compound concentration 10.0 uM
[17] = molecular target: Dual specificity mitogen-activated protein kinase kinase 4 (Homo sapiens) (UniProt P45985); details: Compound concentration 1000.0 nM
Dual specificity mitogen-activated protein kinase kinase 4 (Homo sapiens), sequence (P45985 whole entry): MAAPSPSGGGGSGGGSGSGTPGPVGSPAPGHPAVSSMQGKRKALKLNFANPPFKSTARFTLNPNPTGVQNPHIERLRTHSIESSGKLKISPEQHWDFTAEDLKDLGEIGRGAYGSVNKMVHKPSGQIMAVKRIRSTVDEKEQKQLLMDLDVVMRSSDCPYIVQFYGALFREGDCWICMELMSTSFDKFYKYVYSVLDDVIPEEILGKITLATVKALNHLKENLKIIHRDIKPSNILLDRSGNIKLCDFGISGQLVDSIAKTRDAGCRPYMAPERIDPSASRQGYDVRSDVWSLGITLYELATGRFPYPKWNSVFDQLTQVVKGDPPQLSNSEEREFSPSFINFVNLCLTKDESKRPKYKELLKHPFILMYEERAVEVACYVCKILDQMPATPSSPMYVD

[18] = molecular target: Mitogen-activated protein kinase kinase kinase 4 (Homo sapiens) (UniProt Q9Y6R4); details: Compound concentration 1000.0 nM
[19] = molecular target: Testis-specific serine/threonine-protein kinase 1 (Homo sapiens) (UniProt Q9BXA7); details: Compound concentration 1000.0 nM
[20] = molecular target: Delta-type opioid receptor (Homo sapiens, UniProt P41143); experiment: GPCRScan assay: inhibition of DOR; design: radioligand conc. used [nm] 1.0 – 2.0, parental cells stable HEK
Delta-type opioid receptor, sequence (P41143 whole entry): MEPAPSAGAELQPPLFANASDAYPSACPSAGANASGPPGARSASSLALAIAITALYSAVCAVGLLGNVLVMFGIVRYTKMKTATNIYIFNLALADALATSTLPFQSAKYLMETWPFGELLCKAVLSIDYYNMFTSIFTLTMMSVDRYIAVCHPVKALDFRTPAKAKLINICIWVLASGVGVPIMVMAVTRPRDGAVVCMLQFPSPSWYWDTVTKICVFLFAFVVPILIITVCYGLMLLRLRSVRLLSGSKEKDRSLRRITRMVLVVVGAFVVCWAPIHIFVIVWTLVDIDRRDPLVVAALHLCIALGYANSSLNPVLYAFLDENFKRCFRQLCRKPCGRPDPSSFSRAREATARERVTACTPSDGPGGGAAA

[21] = molecular target: Serine/threonine-protein kinase 32A (Homo sapiens) (UniProt Q8WU08); details: Compound concentration 1000.0 nM
[22] = molecular target: Cyclin-dependent kinase-like 2 (Homo sapiens) (UniProt Q92772); details: Compound concentration 1000.0 nM
[23] = molecular target: Mitogen-activated protein kinase 9 (Homo sapiens) (UniProt P45984); details: Compound concentration 1000.0 nM
[24] = molecular target: Mitogen-activated protein kinase kinase kinase 15 (Homo sapiens) (UniProt Q6ZN16); details: Compound concentration 1000.0 nM
[25] = molecular target: Mitogen-activated protein kinase 8 (Homo sapiens) (UniProt P45983); details: Compound concentration 1000.0 nM
[26] = molecular target: Casein kinase I isoform epsilon (Homo sapiens) (UniProt P49674); details: Compound concentration 1000.0 nM
[27] = molecular target: Mitogen-activated protein kinase kinase kinase 10 (Homo sapiens) (UniProt Q02779); details: Compound concentration 1000.0 nM
[28] = molecular target: Serine/threonine-protein kinase Nek6 (Homo sapiens) (UniProt Q9HC98); details: Compound concentration 1000.0 nM
Serine/threonine-protein kinase Nek6 (Homo sapiens), sequence (Q9HC98 whole entry, canonical isoform): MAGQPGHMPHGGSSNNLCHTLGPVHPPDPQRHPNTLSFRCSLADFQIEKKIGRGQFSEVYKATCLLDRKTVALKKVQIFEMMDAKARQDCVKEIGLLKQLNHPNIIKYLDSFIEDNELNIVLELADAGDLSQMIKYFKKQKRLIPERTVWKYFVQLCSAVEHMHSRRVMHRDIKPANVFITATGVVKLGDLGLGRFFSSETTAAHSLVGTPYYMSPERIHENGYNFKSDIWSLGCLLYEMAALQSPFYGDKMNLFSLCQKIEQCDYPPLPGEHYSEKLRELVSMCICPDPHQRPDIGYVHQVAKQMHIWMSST

[29] = molecular target: Casein kinase I isoform gamma-2 (Homo sapiens) (UniProt P78368); details: Compound concentration 1000.0 nM
Casein kinase I isoform gamma-2 (Homo sapiens), sequence (P78368 whole entry, looked up, canonical isoform): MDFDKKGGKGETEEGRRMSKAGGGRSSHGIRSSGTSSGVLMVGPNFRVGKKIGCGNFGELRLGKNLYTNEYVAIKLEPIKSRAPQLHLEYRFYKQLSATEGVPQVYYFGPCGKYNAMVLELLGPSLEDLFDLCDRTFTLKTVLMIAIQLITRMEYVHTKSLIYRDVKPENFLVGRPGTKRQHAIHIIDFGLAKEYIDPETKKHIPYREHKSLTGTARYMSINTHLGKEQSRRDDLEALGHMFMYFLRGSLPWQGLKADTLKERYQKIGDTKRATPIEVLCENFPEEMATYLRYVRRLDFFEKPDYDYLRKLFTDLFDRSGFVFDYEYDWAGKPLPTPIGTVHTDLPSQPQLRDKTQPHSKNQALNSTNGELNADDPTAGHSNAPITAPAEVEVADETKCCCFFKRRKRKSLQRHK

[30] = molecular target: Atypical kinase COQ8B, mitochondrial (Homo sapiens) (UniProt Q96D53); details: Compound concentration 1000.0 nM
Atypical kinase COQ8B, mitochondrial (Homo sapiens), sequence (Q96D53 whole entry): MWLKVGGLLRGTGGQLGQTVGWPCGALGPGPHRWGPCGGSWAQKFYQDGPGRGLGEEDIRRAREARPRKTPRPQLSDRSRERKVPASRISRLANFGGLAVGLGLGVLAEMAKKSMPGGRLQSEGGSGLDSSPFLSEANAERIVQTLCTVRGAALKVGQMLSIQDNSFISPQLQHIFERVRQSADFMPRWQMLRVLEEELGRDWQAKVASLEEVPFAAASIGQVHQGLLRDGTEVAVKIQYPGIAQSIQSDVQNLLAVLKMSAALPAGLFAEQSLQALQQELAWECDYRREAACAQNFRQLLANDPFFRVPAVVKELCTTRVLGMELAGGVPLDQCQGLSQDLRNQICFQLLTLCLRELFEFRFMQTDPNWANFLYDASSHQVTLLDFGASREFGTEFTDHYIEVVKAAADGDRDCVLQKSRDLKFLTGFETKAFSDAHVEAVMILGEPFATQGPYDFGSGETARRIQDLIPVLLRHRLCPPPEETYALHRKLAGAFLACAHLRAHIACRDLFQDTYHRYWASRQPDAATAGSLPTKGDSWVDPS

[31] = molecular target: Serine/threonine-protein kinase 32B (Homo sapiens) (UniProt Q9NY57); details: Compound concentration 1000.0 nM
[32] = molecular target: Serine/threonine-protein kinase ULK1 (Homo sapiens) (UniProt O75385); details: Compound concentration 1000.0 nM
[33] = molecular target: Serine/threonine-protein kinase PLK4 (Homo sapiens) (UniProt O00444); details: Compound concentration 1000.0 nM
[34] = molecular target: Serine/threonine-protein kinase 38-like (Homo sapiens) (UniProt Q9Y2H1); details: Compound concentration 1000.0 nM
Serine/threonine-protein kinase 38-like (Homo sapiens), sequence (Q9Y2H1 2-464 limits assumed): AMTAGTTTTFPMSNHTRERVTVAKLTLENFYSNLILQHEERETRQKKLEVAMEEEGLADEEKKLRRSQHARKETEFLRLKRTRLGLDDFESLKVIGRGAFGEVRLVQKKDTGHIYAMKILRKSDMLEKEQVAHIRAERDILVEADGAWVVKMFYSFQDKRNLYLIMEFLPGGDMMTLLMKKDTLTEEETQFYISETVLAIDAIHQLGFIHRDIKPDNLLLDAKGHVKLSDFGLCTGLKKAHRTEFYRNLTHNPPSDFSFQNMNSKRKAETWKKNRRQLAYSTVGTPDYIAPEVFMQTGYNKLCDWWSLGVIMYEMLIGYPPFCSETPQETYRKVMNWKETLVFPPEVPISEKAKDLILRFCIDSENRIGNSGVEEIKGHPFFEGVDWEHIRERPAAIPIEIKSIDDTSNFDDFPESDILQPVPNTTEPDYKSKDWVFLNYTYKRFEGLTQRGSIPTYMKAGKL

[35] = molecular target: Phosphatidylinositol 5-phosphate 4-kinase type-2 beta (Homo sapiens) (UniProt P78356); details: Compound concentration 1000.0 nM
[36] = molecular target: Cyclin-dependent kinase 4 (Homo sapiens) (UniProt P11802); details: Compound concentration 1000.0 nM
Cyclin-dependent kinase 4 (Homo sapiens), sequence (P11802 whole entry): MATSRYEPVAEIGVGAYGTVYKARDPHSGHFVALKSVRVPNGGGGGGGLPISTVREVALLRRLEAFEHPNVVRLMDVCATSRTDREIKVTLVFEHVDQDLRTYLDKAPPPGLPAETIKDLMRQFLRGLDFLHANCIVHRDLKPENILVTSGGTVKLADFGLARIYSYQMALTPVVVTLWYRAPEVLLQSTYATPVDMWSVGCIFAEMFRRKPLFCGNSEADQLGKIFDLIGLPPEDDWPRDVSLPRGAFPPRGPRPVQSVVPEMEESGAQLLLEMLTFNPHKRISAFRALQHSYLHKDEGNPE

[37] = molecular target: Insulin-like growth factor 1 receptor (Homo sapiens) (UniProt P08069); details: Compound concentration 1000.0 nM
[38] = tested on: eIF-2-alpha kinase GCN2 (Homo sapiens), Q9P2K8 [S808G]; details: Compound concentration 1000.0 nM
[39] = molecular target: Interferon-induced, double-stranded RNA-activated protein kinase (Homo sapiens) (UniProt P19525); details: Compound concentration 1000.0 nM
[40] = molecular target: GABA-A receptor; anion channel (Rattus norvegicus) (UniProt O09028+P15431+P18506+P18508+P19969+P20236+P23574+P23576+P28471+P28473+P30191+P62813+P63079+P63138+Q91ZM7+Q9ES14); details: Compound concentration 10.0 uM
[41] = tested on: Leucine-rich repeat serine/threonine-protein kinase 2 (Homo sapiens), Q5S007 [G2019S]; details: Compound concentration 1000.0 nM
[42] = molecular target: Serine/threonine-protein kinase DCLK1 (Homo sapiens) (UniProt O15075); details: Compound concentration 1000.0 nM

Protein-tyrosine kinase 6 (Homo sapiens), sequence (Q13882 whole entry, looked up): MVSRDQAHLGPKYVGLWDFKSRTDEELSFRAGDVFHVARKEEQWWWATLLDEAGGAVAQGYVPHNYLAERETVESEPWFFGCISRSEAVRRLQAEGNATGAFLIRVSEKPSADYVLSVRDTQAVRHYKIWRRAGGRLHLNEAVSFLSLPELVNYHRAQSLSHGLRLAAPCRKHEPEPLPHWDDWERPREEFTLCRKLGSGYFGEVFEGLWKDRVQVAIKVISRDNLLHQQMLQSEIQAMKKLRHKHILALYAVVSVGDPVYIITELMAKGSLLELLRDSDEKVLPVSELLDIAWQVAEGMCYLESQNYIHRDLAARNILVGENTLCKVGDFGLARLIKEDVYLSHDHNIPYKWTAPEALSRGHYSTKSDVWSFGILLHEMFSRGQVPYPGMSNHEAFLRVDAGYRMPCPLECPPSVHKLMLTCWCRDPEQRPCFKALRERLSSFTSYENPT

CN(C)CC#Cc1ccc(OCCCc2sc(N3CCc4cccc(C(=O)Nc5nc6ccccc6s5)c4C3)nc2C(=O)O)c(F)c1 [A-1155463]
residual activity [1]: 91% | residual activity [2]: 96% | residual activity [3]: 88% | inhibition [4]: 1.52% | residual activity [5]: 86% | residual activity [6]: 97% | residual activity [7]: 100% | residual activity [8]: 75% | residual activity [9]: 100% | residual activity [10]: 100% | residual activity [11]: 85% | residual activity [12]: 100% | Ki [13]: 806 nM | residual activity [14]: 100% | residual activity [15]: 100% | inhibition [16]: 83% | residual activity [17]: 100% | residual activity [18]: 100% | residual activity [19]: 70% | Ki [20]: 2120 nM | residual activity [21]: 100% | residual activity [22]: 98% | residual activity [23]: 76% | residual activity [24]: 99% | residual activity [25]: 62% | residual activity [26]: 86% | residual activity [27]: 100% | residual activity [28]: 100% | residual activity [29]: 92% | residual activity [30]: 99% | residual activity [31]: 95% | residual activity [32]: 100% | residual activity [33]: 77% | residual activity [34]: 83% | residual activity [35]: 80% | residual activity [36]: 100% | residual activity [37]: 98% | residual activity [38]: 83% | residual activity [39]: 100% | inhibition [40]: 11.3% | residual activity [41]: 100% | residual activity [42]: 72%
